21 compounds from patent publication US20230348424A1, “HETEROCYCLIC COMPOUNDS AND METHODS OF USE” (Schrödinger, Inc., priority 2022, published 2023) can be followed below.

One assay concerns the target human SOS1 (Homo sapiens (Human), UniProt Q07889). The assay is described as follows: Surface Plasmon Resonance (SPR) SOS1 Binding Assay. The conditions noted are these: biotinylated SOS1 (res. 564-1049), Biacore 8K, 25° C., kinetic or steady state fit, 1:1 binding; read-out: hSOS1 KD. The protocol:
Binding to SOS1 was measured using a SPR assay with purified recombinant human SOS1 substrate (res. 564-1049 with N-terminal Avi tag; purified and biotinylated based on Hillig, et al., Proc Natl Acad Sci USA (2019); 116(7):2551-2560). SPR measurements were performed on a Biacore 8K SPR instrument (GE Healthcare, Sweden). Assays were performed at 25° C. using Series S SA sensor chips pre-coated with streptavidin (GE Healthcare, Cat. BR100531). Biotinylated SOS1 diluted in sample buffer (20 mM Tris HCI, 150 mM NaCl, 1 mM DTT, 0.05% TWEEN 20, 1 mM MgCh, pH 8.0) was captured to one flow cell of the chip to about 3,000 resonance units (RU) using sample buffer supplemented with 5% DMSO as a running buffer. Serial dilutions of the assayed compounds in the running buffer at 100, 50 or 0.5 µM were injected for 60 s at a flow rate of 30 µL/min and association phases were recorded. Dissociation of the samples was monitored for 600 s. Data processing was performed using Biacore Insight Software (Biacore, GE Healthcare). Sensorgrams recorded on a SA flow cell without captured protein were subtracted from sensorgrams recorded on the SOS1 surface. Blank injections of running buffer were used for double referencing and solvent correction was applied to all sample sensorgrams to correct for buffer mismatches. KDS were estimated using a kinetic or steady state, where applicable, fitting model describing a reversible equilibrium with 1:1 binding between SOS1 and the compound.

The target in assay [1] is SOS1:KRAS (G12C) interaction (Homo sapiens (Human), UniProt Q07889). Description: SOS1 KRas(G12C) FRET Assay. Type of assay: binding. To be noted: 0.5 nM His10-SOS1 (res. 564-1049), 2.5 nM GST-KRAS G12C (res. 1-169), 2 hrs at RT. Summed up: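 GST-KRAS G12C (res. 1-169) at 2.5 nM and His10-SOS1 (res. 564-1049) at 0.5 nM, final, in PBS with 0.1% BSA, 5 mM MgCl2, 100 mM KF, 5 mM DTT and 0.5% DMSO. After 2 h at RT, FRET read at 665/615 nm and normalized to DMSO and no-SOS1 controls. IC50 by non-linear regression.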
SOS1:KRAS (G12C) interaction, sequence (Q07889 564-1049, stated change not applied): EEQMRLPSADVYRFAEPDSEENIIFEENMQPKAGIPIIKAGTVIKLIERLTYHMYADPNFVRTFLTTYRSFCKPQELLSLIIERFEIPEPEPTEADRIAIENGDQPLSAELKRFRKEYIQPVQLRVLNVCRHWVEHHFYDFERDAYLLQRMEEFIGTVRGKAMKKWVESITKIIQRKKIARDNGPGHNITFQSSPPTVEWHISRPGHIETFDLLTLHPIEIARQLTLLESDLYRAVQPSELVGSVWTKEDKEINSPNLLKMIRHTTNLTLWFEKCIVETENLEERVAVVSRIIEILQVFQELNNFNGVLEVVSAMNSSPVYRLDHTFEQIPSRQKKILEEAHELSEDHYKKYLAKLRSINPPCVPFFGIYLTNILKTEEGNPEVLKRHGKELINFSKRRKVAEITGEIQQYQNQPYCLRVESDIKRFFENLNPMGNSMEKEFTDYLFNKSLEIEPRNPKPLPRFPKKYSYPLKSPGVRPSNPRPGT

human SOS1, sequence (Q07889 564-1049): as the sequence (Q07889 564-1049, stated change not applied) above

Broadly, the Kd is the constant that tells how readily two partners part at equilibrium. What is called IC50 is the concentration needed to halve the response being measured. A high value points to a need for much substance. As to `C[C@@H](NC(=O)c1cn([C@@H]2CCC2(F)F)c(=O)cc1N[C@H]1[C@@H]2CN(C)C[C@@H]21)c1cccc(C(F)(F)F)c1F` (single isomer, unassigned) [Example 145], on human SOS1, the equilibrium dissociation constant (Kd) is 37 nM. The compound also registered a half-maximal inhibitory concentration (IC50) in assay [1] of 35.2 nM.

Consider `C[C@@H](NC(=O)c1cn([C@H]2CCC2(F)F)c(=O)cc1N[C@H]1[C@@H]2CN(C)C[C@@H]21)c1cccc(C(C)(F)F)c1F` (single isomer, unassigned) [Example 148], for which the dissociation constant Kd at human SOS1 was found to be 6 nM. Also, the half-maximal inhibitory concentration (IC50) in assay [1] is 7.4 nM.

In the case of `C[C@@H](NC(=O)c1cn([C@@H]2CCC2(F)F)c(=O)cc1N[C@H]1[C@@H]2CN(C)C[C@@H]21)c1cccc(C(C)(F)F)c1F` (single isomer, unassigned) [Example 149], the dissociation constant (Kd) at human SOS1 is 56 nM. Also, in assay [1], inhibition was half-maximal at 61.6 nM (IC50).

In the case of `C[C@@H](NC(=O)c1cn([C@@]2(C)CCOC2)c(=O)cc1N[C@H]1[C@@H]2CN(C)C[C@@H]21)c1cccc(C(F)F)c1F` (single isomer, unassigned) [Example 151], the equilibrium dissociation constant (Kd) on human SOS1 turned out to be 12 nM. Further, half-maximal inhibition in assay [1] (IC50) was put at 47.3 nM.

In the case of `Cc1c([C@@H](C)NC(=O)c2cn(C3CCOCC3)c(=O)cc2NCCN(C)C)cccc1C(F)(F)F` [Example 2, (R)-4-((2-(dimethylamino)ethyl)amino)-N-(1-(2-methyl-3-(trifluoromethyl)phenyl)ethyl)-6-oxo-1-(tetrahydro-2H-pyran-4-yl)-1,6-dihydropyridine-3-carboxamide], the Kd at human SOS1 was determined as 27 nM. For the same compound, in assay [1], it took 59.6 nM to reach half-maximal inhibition (IC50).

In the case of `Cc1c([C@@H](C)NC(=O)c2cn(C3CCOCC3)c(=O)cc2N[C@@H]2CCN(C)C2)cccc1C(F)(F)F` [Example 3, N-((R)-1-(2-methyl-3-(trifluoromethyl)phenyl)ethyl)-4-(((R)-1-methylpyrrolidin-3-yl)amino)-6-oxo-1-(tetrahydro-2H-pyran-4-yl)-1,6-dihydropyridine-3-carboxamide], at human SOS1, the Kd is 16 nM. Also, in assay [1], the IC50 was found to be 41.2 nM.

With `Cc1c([C@@H](C)NC(=O)c2cn(C3CCOCC3)c(=O)cc2N[C@H]2CCN(C)C2)cccc1C(F)(F)F` [Example 4, N-((R)-1-(2-methyl-3-(trifluoromethyl)phenyl)ethyl)-4-(((S)-1-methylpyrrolidin-3-yl)amino)-6-oxo-1-(tetrahydro-2H-pyran-4-yl)-1,6-dihydropyridine-3-carboxamide], the dissociation constant (Kd) at human SOS1 amounted to 16 nM. Also, the IC50 in assay [1] turned out to be 45.9 nM.

Take `Cc1c([C@@H](C)NC(=O)c2cn(C3CCOCC3)c(=O)cc2N[C@@H]2CCCN(C)C2)cccc1C(F)(F)F` [Example 5, N-((R)-1-(2-methyl-3-(trifluoromethyl)phenyl)ethyl)-4-(((R)-1-methylpiperidin-3-yl)amino)-6-oxo-1-(tetrahydro-2H-pyran-4-yl)-1,6-dihydropyridine-3-carboxamide]: the Kd on human SOS1 is 20 nM. The compound also registered an IC50 in assay [1] of 35.5 nM.

Consider `Cc1c([C@@H](C)NC(=O)c2cn(C3CCOCC3)c(=O)cc2N[C@H]2CCCN(C)C2)cccc1C(F)(F)F` [Example 6, N-((R)-1-(2-methyl-3-(trifluoromethyl)phenyl)ethyl)-4-(((S)-1-methylpiperidin-3-yl)amino)-6-oxo-1-(tetrahydro-2H-pyran-4-yl)-1,6-dihydropyridine-3-carboxamide], for which, on human SOS1, the Kd was determined as 30 nM. Further, inhibition in assay [1] was half-maximal at 56.7 nM (IC50).

With `Cc1c([C@@H](C)NC(=O)c2cn(C3CCOCC3)c(=O)cc2N[C@H]2C[C@H](N(C)C)C2)cccc1C(F)(F)F` [Example 7, 4-(((1r,3R)-3-(dimethylamino)cyclobutyl)amino)-N-((R)-1-(2-methyl-3-(trifluoromethyl)phenyl)ethyl)-6-oxo-1-(tetrahydro-2H-pyran-4-yl)-1,6-dihydropyridine-3-carboxamide], the Kd on human SOS1 turned out to be 20 nM. In assay [1], this compound returned an IC50 of 53.4 nM.

`Cc1c([C@@H](C)NC(=O)c2cn(C3CCOCC3)c(=O)cc2NCC2CN(C)C2)cccc1C(F)(F)F` [Example 8, (R)-N-(1-(2-methyl-3-(trifluoromethyl)phenyl)ethyl)-4-(((1-methylazetidin-3-yl)methyl)amino)-6-oxo-1-(tetrahydro-2H-pyran-4-yl)-1,6-dihydropyridine-3-carboxamide]: at human SOS1, the dissociation constant Kd amounted to 12 nM. Further, in assay [1], the half-maximal inhibitory concentration (IC50) was 48.6 nM.

Consider `Cc1c([C@@H](C)NC(=O)c2cn(C3CCOCC3)c(=O)cc2NCCCN(C)C)cccc1C(F)(F)F` [Example 9, (R)-4-((3-(dimethylamino)propyl)amino) -N-(1-(2-methyl-3-(trifluoromethyl)phenyl)ethyl)-6-oxo-1-(tetrahydro-2H-pyran-4-yl)-1,6-dihydropyridine-3-carboxamide], for which, at human SOS1, the Kd turned out to be 17 nM. 39 nM corresponded to half-maximal inhibition in assay [1] (IC50).

Take `Cc1c([C@@H](C)NC(=O)c2cn(C3CCOCC3)c(=O)cc2NCc2cncn2C)cccc1C(F)(F)F` [Example 10, (R)-4-(((1-methyl-1H-imidazol-5-yl)methyl)amino)-N-(1-(2-methyl-3-(trifluoromethyl)phenyl)ethyl)-6-oxo-1-(tetrahydro-2H-pyran-4-yl)-1,6-dihydropyridine-3-carboxamide]: the equilibrium dissociation constant (Kd) on human SOS1 is 74 nM. Further, 73 nM corresponded to half-maximal inhibition in assay [1] (IC50).

As for `CNc1cc(=O)n(C2CCOCC2)cc1C(=O)N[C@H](C)c1cccc(C(F)(F)F)c1C` [Example 12, (R)-N-(1-(2-methyl-3-(trifluoromethyl)phenyl)ethyl)-4-(methylamino)-6-oxo-1-(tetrahydro-2H-pyran-4-yl)-1,6-dihydropyridine-3-carboxamide], the dissociation constant (Kd) at human SOS1 was 245 nM. The IC50 in assay [1] stood at 705 nM.

For the compound `Cc1c([C@@H](C)NC(=O)c2cn(C3CCOCC3)c(=O)cc2N[C@H]2CC[C@H](O)C2)cccc1C(F)(F)F` [Example 13, 4-(((1S,3S)-3-hydroxycyclopentyl)amino)-N-((R)-1-(2-methyl-3-(trifluoromethyl)phenyl)ethyl)-6-oxo-1-(tetrahydro-2H-pyran-4-yl)-1,6-dihydropyridine-3-carboxamide], the equilibrium dissociation constant (Kd) at human SOS1 was found to be 91 nM. The IC50 in assay [1] is 155 nM.

As for `Cc1c([C@@H](C)NC(=O)c2cn(C3CCOCC3)c(=O)cc2N[C@@H]2CC[C@@H](O)C2)cccc1C(F)(F)F` [Example 14, 4-(((1R,3R)-3-hydroxycyclopentyl)amino)-N-((R)-1-(2-methyl-3-(trifluoromethyl)phenyl)ethyl)-6-oxo-1-(tetrahydro-2H-pyran-4-yl)-1,6-dihydropyridine-3-carboxamide], the Kd on human SOS1 is 103 nM. The compound also gave a half-inhibitory concentration (IC50) in assay [1] of 225 nM.

As for `Cc1c([C@@H](C)NC(=O)c2cn(C3CCOCC3)c(=O)cc2NC2CCN(CCF)CC2)cccc1C(F)(F)F` [Example 16, (R)-4-((1-(2-fluoroethyl)piperidin-4-yl)amino)-N-(1-(2-methyl-3-(trifluoromethyl)phenyl)ethyl)-6-oxo-1-(tetrahydro-2H-pyran-4-yl)-1,6-dihydropyridine-3-carboxamide], the Kd on human SOS1 is 23 nM. The compound further came in with a concentration for half-maximal inhibition (IC50) in assay [1] of 29.4 nM.

Regarding `Cc1c([C@@H](C)NC(=O)c2cn(C3CCOCC3)c(=O)c(C#N)c2NC2CCN(C)CC2)cccc1C(F)(F)F` [Example 20, (R)-5-cyano-N-(1-(2-methyl-3-(trifluoromethyl)phenyl)ethyl)-4-((1-methylpiperidin-4-yl)amino)-6-oxo-1-(tetrahydro-2H-pyran-4-yl)-1,6-dihydropyridine-3-carboxamide], the Kd at human SOS1 came out at 10.4 nM. For the same compound, in assay [1], the half-inhibitory concentration (IC50) came out at 22.7 nM.

With `Cc1c([C@@H](C)NC(=O)c2cn(C3CCOCC3)c(=O)cc2NC2CC3(C2)CN(C)C3)cccc1C(F)(F)F` [Example 21, (R)-4-((2-methyl-2-azaspiro[3.3]heptan-6-yl)amino)-N-(1-(2-methyl-3-(trifluoromethyl)phenyl)ethyl)-6-oxo-1-(tetrahydro-2H-pyran-4-yl)-1,6-dihydropyridine-3-carboxamide], the dissociation constant Kd on human SOS1 amounted to 17 nM. The half-inhibitory concentration (IC50) in assay [1] is 53.7 nM.

For the compound `Cc1c([C@@H](C)NC(=O)c2cn(C3CCOCC3)c(=O)cc2N[C@H]2[C@@H]3CN(C)C[C@@H]32)cccc1C(F)(F)F` [Example 26, N-((R)-1-(2-methyl-3-(trifluoromethyl)phenyl)ethyl)-4-(((1R,5S,6s)-3-methyl-3-azabicyclo[3.1.0]hexan-6-yl)amino)-6-oxo-1-(tetrahydro-2H-pyran-4-yl)-1,6-dihydropyridine-3-carboxamide], the dissociation constant Kd on human SOS1 came out at 11 nM. Further, the IC50 in assay [1] was found to be 27.1 nM.

Turning to `COC1(CNc2cc(=O)n(C3CCOCC3)cc2C(=O)N[C@H](C)c2cccc(C(F)(F)F)c2C)CN(C)C1` [Example 29, (R)-4-(((3-methoxy-1-methylazetidin-3-yl)methyl)amino)-N-(1-(2-methyl-3-(trifluoromethyl)phenyl)ethyl)-6-oxo-1-(tetrahydro-2H-pyran-4-yl)-1,6-dihydropyridine-3-carboxamide], the Kd at human SOS1 came out at 11 nM. Besides, half-maximal inhibition in assay [1] (IC50) required 19.1 nM.
